According to patent US11090395B2, “Composition for cross talk between estrogen receptors and cannabinoid receptors” (SeeCure Taiwan Co., Ltd., priority 2018, dated 2021):

Test system: lymphoma cells (mantle cell lines and DLBCL cell lines)
Test: In vitro anti-cancer cell viability assay in lymphoma cell lines
Type: cell-based
Method: Effect of Composition SC-05-L-1 and Composition SC-05-K-1 against lymphoma cells was assessed by using cell viability assays in representative mantle cell lines and diffuse large B-cell lymphoma (DLBCL) cell lines. The cells were treated with increasing concentration of Compound SC-05-L-1 and Compound SC-05-K-1. Representative DLBCL cell lines sensitive or less sensitive to Compound SC-05-L-1 and Compound SC-05-K-1 were compared.

`CCN(CC)CCOc1ccc(/C(=C(/CCCOCC(O)CN2CCCNCCNCCCNCC2)c2ccccc2)c2ccccc2)cc1.Cl` [SC-05-L-1, (Z)-1-(1,4,8,11-tetraazacyclotetradecan-1-yl)-3-((5-(4-(2-(diethylamino)ethoxy)phenyl)-4,5-diphenylpent-4-en-1-yl)oxy)propan-2-ol hydrochloride salt] was tested, and the “anti-cancer effect against lymphoma cells” value (increasing concentration (FIG. 7A, 7B)) was “dose-dependent manner against lymphoma cells” and the relative toxicity (lymphoma cells, cyclam versus cyclen chelator (FIG. 8A, 8B)) was “less toxic than Compound SC-05-K-1”.
